Changes are numbered by the printed parent chain. Read-outs that look alike come from different tables or passages of the source.
Assays:
mKv3.1a cDNA (NGK2) = conditions: data from Yokoyama, et al., 1989, cited from earlier work
[1] = target: T1, type l K+ channel (human) (Homo sapiens, UniProt P48547); test: Patch-clamp pharmacology of type l K+ channels in human Louckes lymphoma cells; assay type: cell-based
T1 construct: Native channels; endogenous in cells; host or cells: Louckes human B cell lymphoma line
T1 sequence (P48547 1-511): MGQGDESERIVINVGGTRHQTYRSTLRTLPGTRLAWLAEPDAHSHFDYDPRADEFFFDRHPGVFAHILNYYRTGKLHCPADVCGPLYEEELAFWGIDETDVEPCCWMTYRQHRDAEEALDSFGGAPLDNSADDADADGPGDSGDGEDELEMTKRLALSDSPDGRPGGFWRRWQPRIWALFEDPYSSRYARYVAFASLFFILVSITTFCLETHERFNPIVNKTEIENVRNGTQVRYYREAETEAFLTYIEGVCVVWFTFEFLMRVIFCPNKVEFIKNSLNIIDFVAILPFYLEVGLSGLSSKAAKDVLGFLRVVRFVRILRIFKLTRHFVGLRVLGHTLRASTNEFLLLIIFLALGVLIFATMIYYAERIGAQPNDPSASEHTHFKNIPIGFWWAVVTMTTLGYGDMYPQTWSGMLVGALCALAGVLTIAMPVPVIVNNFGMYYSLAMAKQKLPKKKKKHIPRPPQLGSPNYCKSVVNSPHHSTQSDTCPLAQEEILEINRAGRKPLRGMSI
Protocol: For the two-electrode voltage-clamp experiments, cells were bathed in oocyte Ringer solution containing 96mM NaCl, 2 mM KCl, 1.8 mM CaCl2, 1 mM MgCl2, 5 mM N-2-hydroxyethylpiperazine-N'-2-ethanesulfonic acid (HEPES), and adjusted to pH 7.5 with NaOH. The pipette solution was 3 M KCl. Patch-clamp experiments were carried out under identical conditions in oocytes and in T cells, using a mammalian Ringer solution containing 160 mM NaCl, 4.5 mM KCl, 2 mM CaCl2,1 mM MgCl2, 5 mM HEPES, and adjusted to pH 7.4 with NaOH and a total osmolarity of 290-320 mosm/kg. Internal (pipette) solutions contained: 140 mM KF, 2 mM MgCl2, 1 mM CaCl2, 5mM HEPES, 11 mM K2 -ethylene glycol-bis(β-aminoethylether)N,N,N',N'-tetraacetic acid (EGTA). CTX was purchased from Latoxan (IBF-Biotechnics, Inc., Columbia, Md.).
(§1) The patch-clamp amplifier (List L/M-EPC 7, Adams and List Associates, Ltd., Great Neck, N.Y.) was used in the voltage-clamp mode without series resistance compensation. Patchclamp electrodes were pulled from Accu-fill 90 Micropets (Becton, Dickinson & Co., Parsippany, N.J.) in three stages, coated with Sylgard (Dow Corning Corp., Midland, Mich.) and fire-polished to resistances, measured in the bath, of 2-7 M.OMEGA.. In all patch-clamp experiments, the command input of the patch-clamp amplifier was controlled by a PDP 11/73 computer via a digital-analog converter, and membrane currents were recorded at a bandwidth of 2 kHz. The holding potential was adjusted in all experiments to E=-80 mV. Correction for capacitative currents was achieved by analog subtraction.
Type l Channels in a Human Lymphoma Line: The human B cell lymphoma line, Louckes, has been reported to express large numbers of type l K+ channels (Shapiro and DeCoursey, (1988) Biophys. J. 53, 550a). We have confirmed that Louckes cells display a K+ channel with gating kinetics and pharmacological sensitivities indistinguishable from the type l K+ channels of mouse T cells (Table I and II). Because Louckes is a human cell line, it should be possible to compare the Kv3.1 transcripts isolated from these cells with Kv3.1 transcripts isolated from mouse T cells.

rKv3.1 cDNA (Kv4) = conditions: data from Luneau, et al., 1991; read-out: Blockers, Kd / half-blocking dose; cited from earlier work
[2] = target: T2, type l K+ channel (mouse) (Mus musculus, UniProt P15388); conditions: cited from earlier work; for effect on type l K+ channels, in words: MRL-lpr mice / mouse lymphocytes
T2 construct: Native channels; endogenous in cells; host or cells: mouse T cells (CD4-CD8- T cells of autoimmune strains such as MRL-lpr; normal cytotoxic T cells)
T2 sequence (P15388 1-511): T1 sequence (P48547 1-511) with I265V

[3] = target: T3, type n K+ channel (mouse) (Mus musculus, UniProt P16390); test: Patch-clamp pharmacology of type n K+ channels in mouse T cells; assay type: cell-based
T3 construct: Native channels; endogenous in cells; host or cells: mouse T cells
Protocol: (§2) A gigohm seal patch-clamp technique was employed [Hamill, et al., Pflugers Arch. […] Cells were separated and stained as described infra. Maximum K^+ conductances (gk) Of CD4^- CD8^- Thy-l.2^+ T cells were determined from the maximum peak K^+ current elicited at +40 mV (holding potential -80 mV), assuming a reversal potential for K^+ of -80 mV. All experiments were done at room temperature (22° to 26° C.). The cells under investigation were bathed in Ringer solution (in mM): 160 NaCl, 4.5 KCl, 2 MgCl2, 1 CaCl2, 2 MgCl2, and 10 K-HEPES (pH 7.4). […] Each point represents gk in one single cell except the ones with the bars that reflect the mean±SD of previously reported data. The data from C3H (n=12), C3H-lpr (n=22), C3H-gld (n=26), and MRL-lpr (n=31) are taken from Grissmer, et al., J. Immunol. […] Three types of voltage-gated K^+ channels (n, l, n') are expressed by murine T cells, which can be distinguished by electrophysiological and pharmacological criteria. DeCoursey, et al., J. Gen.
(§3) K^+ channels were identified on the basis of their inactivation properties, channel closing kinetics, and sensitivity to block by tetraethylammonium (TEA). Typically type n K^+ channels are use-dependent, i.e., show cumulative inactivation by repetitive depolarizing pulses. Use dependence was determined by measuring the decline in the size of the peak K^+ current elicited with one per second repetitive depolarizing pulses of 200 ms duration.
(§4) (5) Electrophysiology: After phenotypic identification by epifluorescence microscopy, single T cells were patch-clamped at room temperature (22° to 26° C).
(§5) Solutions: The cells under investigation were bathed in normal mammalian Ringer solution containing (in mM): 160 NaCl, 4.5 KCl, 2 MgCl2, 1CaCl2, and 5 Na-HEPES (pH 7.4). […] In Ringer solutions containing tetraethylammonium chloride (TEA^+), NaCl was replaced by the appropriate TEA^+ concentrations keeping the osmolarity constant. The bath solution could be changed during recordings by bath perfusion.

type n channels = conditions: cited from earlier work
[4] = target: T4, type n K+ channel (human) (Homo sapiens, UniProt P22001); test: Patch-clamp pharmacology of type n K+ channels in human T cells; assay type: cell-based; conditions: for Kd: data from this paper
T4 construct: Native channels; endogenous in cells; host or cells: human T cells
Source text: (§6) The pipette solution was 3 M KCl. […] CTX was purchased from Latoxan (IBF-Biotechnics, Inc., Columbia, Md.).
as §1

mKv3.1b K+ channels = target: T5, mKv3.1b K+ channels (Mus musculus, UniProt P15388); test: cell-based; assay type: cell-based
T5 construct: expressed in transfected cells; host or cells: Xenopus oocytes injected with mKv3.1b mRNA
T5 sequence (P15388 1-585 isoform P15388-3): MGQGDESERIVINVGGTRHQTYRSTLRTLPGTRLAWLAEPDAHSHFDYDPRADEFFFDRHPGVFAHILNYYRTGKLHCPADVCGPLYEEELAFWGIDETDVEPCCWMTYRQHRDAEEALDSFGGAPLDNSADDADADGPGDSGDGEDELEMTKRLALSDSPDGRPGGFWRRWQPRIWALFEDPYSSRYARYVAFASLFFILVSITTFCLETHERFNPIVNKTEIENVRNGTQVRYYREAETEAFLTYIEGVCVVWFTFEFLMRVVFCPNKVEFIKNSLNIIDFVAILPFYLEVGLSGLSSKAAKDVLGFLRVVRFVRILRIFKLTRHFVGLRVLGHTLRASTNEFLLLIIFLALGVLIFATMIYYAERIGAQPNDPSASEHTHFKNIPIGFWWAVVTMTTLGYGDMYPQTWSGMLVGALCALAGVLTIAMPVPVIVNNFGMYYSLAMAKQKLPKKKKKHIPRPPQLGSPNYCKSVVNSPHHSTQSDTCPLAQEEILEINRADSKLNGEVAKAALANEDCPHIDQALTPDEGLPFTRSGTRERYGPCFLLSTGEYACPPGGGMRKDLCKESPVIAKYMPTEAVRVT
Protocol: For transcription, the plasmid was linearized by digestion with SacI in the polylinker.
All experiments were done at room temperature (22°-26°C.).
as §6, §1
Mouse Kv3.1b Expression in Oocytes: Xenopus oocytes express a high density of voltage-activated K+ channels following injection of mKv3.1b mRNA. […] Single channel recordings were done on outside-out patches from these oocytes, whereas gating and inactivation kinetics and pharmacological sensitivities were determined using outside-out patches of oocyte membrane injected with a 10 times more concentrated mRNA solution (50 nl of 0.1 μg/μ^1 mRNA).

[5] = target: T2, type l K+ channel (mouse); test: Patch-clamp pharmacology of type l K+ channels in mouse T cells; assay type: cell-based; conditions: for Kd: data from this paper
Protocol: as §2, §3, §4, §5

[6] = target: T4, type n K+ channel (human); conditions: data from DeCoursey, et al., 1984, Sands, 1989, read-out: Blockers, Kd / half-blocking dose; cited from earlier work
[7] = target: T3, type n K+ channel (mouse); conditions: cited from earlier work
[8] = Louckes cells, read-out: Blockers, Kd / half-blocking dose
[9] = 20 mM Co^2+, data from DeCoursey, et al., 1987
[10] = 20 mM Co^2+, data from this paper
[11] = data from DeCoursey, et al., 1987, read-out: Blockers, Kd / half-blocking dose
[12] = first value, read-out: apparent dissociation constant Kd, from reduction of the integral under the current trace
[13] = second value, read-out: apparent dissociation constant Kd, from reduction of the peak current amplitude

T4 sequence (P22001 whole entry): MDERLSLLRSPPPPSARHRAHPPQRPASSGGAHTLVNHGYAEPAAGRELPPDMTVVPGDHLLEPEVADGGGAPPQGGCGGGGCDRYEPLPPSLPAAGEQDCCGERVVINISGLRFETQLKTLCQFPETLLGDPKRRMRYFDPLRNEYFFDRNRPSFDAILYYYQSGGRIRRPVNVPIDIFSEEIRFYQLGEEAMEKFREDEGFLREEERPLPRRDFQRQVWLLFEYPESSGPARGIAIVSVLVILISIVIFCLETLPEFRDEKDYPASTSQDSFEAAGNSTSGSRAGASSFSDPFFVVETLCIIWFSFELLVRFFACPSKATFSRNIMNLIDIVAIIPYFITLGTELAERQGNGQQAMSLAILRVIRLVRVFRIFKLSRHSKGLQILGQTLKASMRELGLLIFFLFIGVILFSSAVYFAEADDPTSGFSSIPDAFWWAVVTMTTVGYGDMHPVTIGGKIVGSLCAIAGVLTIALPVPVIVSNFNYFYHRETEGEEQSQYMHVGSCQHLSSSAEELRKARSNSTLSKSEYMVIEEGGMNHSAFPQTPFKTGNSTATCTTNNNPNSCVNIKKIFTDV
T3 sequence (P16390 whole entry): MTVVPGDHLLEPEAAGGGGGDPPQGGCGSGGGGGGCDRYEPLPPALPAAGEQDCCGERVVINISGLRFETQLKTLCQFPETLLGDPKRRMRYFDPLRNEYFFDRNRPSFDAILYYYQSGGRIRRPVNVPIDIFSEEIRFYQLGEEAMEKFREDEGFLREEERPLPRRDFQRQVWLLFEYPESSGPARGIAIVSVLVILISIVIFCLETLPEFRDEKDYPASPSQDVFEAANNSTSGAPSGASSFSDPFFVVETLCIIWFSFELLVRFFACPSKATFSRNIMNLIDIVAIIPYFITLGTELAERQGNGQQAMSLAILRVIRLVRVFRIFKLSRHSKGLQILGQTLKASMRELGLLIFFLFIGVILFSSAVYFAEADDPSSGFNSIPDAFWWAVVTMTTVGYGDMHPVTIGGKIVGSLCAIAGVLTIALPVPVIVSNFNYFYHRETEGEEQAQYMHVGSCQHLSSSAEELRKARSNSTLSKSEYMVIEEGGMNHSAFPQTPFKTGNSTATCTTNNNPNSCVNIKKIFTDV

Nc1ccncc1 [4-AP, 4-aminopyridine]
Kd (mKv3.1a cDNA (NGK2); read-out: Blockers, Kd / half-blocking dose): 600 µM
Kd [1, 8]: < 100 µM
Kd (rKv3.1 cDNA (Kv4)): 300 µM

[Co+2] [Co^2+]
Effect of 20 mM Co^2+: block gK(Co)/gK [2, 9]: 0.9
Effect of 20 mM Co^2+: shift ΔEn [2, 9]: 36 mV
effect on type l K+ channels, in words [2]: strongly shift the voltage dependence of activation to more depolarized potentials, with minimal blocking
Effect of 20 mM Co^2+: block gK(Co)/gK ([1]; 20 mM Co^2+): 0.76
Effect of 20 mM Co^2+: shift ΔEn ([1]; 20 mM Co^2+): 30 mV
Effect of 20 mM Co^2+: block gK(Co)/gK [3, 10]: 0.27
Effect of 20 mM Co^2+: shift ΔEn [3, 10]: 40 mV
effect on type n channels, in words (type n channels): strongly blocked
Effect of Co^2+: block gK(Co)/gK ([4]; 10 mM Co^2+ (*)): 0.2
Effect of Co^2+: shift ΔEn ([4]; 10 mM Co^2+ (*)): 28 mV
Effect of 20 mM Co^2+: block gK(Co)/gK (mKv3.1b K+ channels; 20 mM Co^2+): 0.75
Effect of 20 mM Co^2+: shift ΔEn (mKv3.1b K+ channels; 20 mM Co^2+): 30 mV

[La+3] [La3+]
effect on type l K+ channels, in words [2]: strongly shift the voltage dependence of activation to more depolarized potentials, with minimal blocking
effect on type n channels, in words (type n channels): strongly blocked

CC[N+](CC)(CC)CC [TEA, tetraethylammonium]
Kd [2, 11]: 80 µM
Kd ([2]; type l channels of murine T cells, read-out: KD / half-blocking dose of block by TEA, identification criterion): 100 µM
Kd [1, 8]: 120 µM
IC50 ([1]; human Louckes lymphoma cells, read-out: half-blocking dose): 100 µM
IC50 [5]: 100 µM
Kd [6]: 8000 µM
Kd [7, 11]: 10000 to 13000 µM
Kd ([7]; type n channels of murine T cells, read-out: KD of block by TEA, identification criterion): 8000 µM
IC50 [3]: 10000 µM
Kd (mKv3.1b K+ channels; outside-out oocyte patch, pulses to +40 mV from -80 mV, read-out: Blockers, Kd / half-blocking dose): 150 µM

C=C[C@H]1C[N@@]2CC[C@H]1C[C@H]2[C@H](O)c1ccnc2ccc(OC)cc12 [quinine]
Kd (mKv3.1a cDNA (NGK2); read-out: Blockers, quinine): 1000 µM
Kd [1, 12]: 10 µM
Kd [1, 13]: 20 µM
Kd [5, 12]: 10 µM
Kd [5, 13]: 19 µM
Kd [4, 12]: 13 µM
Kd [4, 13]: 24 µM
Kd (mKv3.1b K+ channels; 200 ms steps from -80 mV to 40 mV, first value, read-out: apparent dissociation constant Kd, from reduction of the integral under the current trace): 4 µM
effect on mKv3.1b K+ currents, in words (mKv3.1b K+ channels; oocytes): increased the apparent rate of mKv3.1b K+ current inactivation, and produced "use-dependent" block
Kd (mKv3.1b K+ channels; [13]): 20 µM

Reference: patent US5397702A, “Assay for and treatment of autoimmune diseases” (priority 1990, dated 1995)
